# How the values were obtained:
# [1] = IL-1β induced inflammation: serum and spleen cytokines; format: in vivo; settings: TRPA1 KO mice; after IL-1β administration; 3 hours
# Procedure: Mice were injected with 3.2 μg/kg IL-1β ip or saline. Three hours later the mice were euthanized, and blood, spleen, and two brain regions collected. Blood was collected by cardiac puncture. To obtain serum from these samples, blood was allowed to clot for approximately 45 min to 1 h. The blood was then spun at 5,000 rpm for 10 min and 10,000 For 2 min. Supernatants (serum) were collected and stored at −20° C. prior to use. The spleen was homogenized using a bullet blender homogenizer (Next Advance, Averill Park, N.Y., USA) and the recommended bead homogenization kit and protocol in a 4° C. walk-in refrigerator. The homogenized sample was then spun down at 15,000 rpm for 10 min with the supernatants collected and stored at −20° C. Splenic protein level was measured using the Bradford assay. IL-6, IL-1β, KC/Gro (CXCL1), and IL-1β for both serum and spleen were measured on a custom mouse inflammatory electrochemiluminescent kit (Meso Scale Discovery, Gaithersburg, Md., USA) according to manufacturer's recommendations. The brain stem region was collected on ice, using a binocular dissection microscope and placed in the same tube. Brain regions were snap frozen on dry ice and transferred to storage at −80° C.
# The serum and splenic tissue of these mice were then analyzed for known downstream signaling molecules of IL-1β, IL-6, IL-1β and KC/GRO (CXCL1).
# [2] = Thermoregulation: intraperitoneal body temperature recorded by implant after IL-1β injection; format: in vivo, mice; settings: for Change in ip body temperature: WT mice
# Procedure: FIG. 5A-5B. […] Body temperature was recorded using an ETA-F10 temperature implant (DSI New Brighton, Minn.) that was placed in the peritoneal cavity and fixed to the peritoneal wall. After recording the baseline temperature for 1 hr, rmIL-1β (5.0 μg/kg) was administered by i.p injection. Body temperature of wildtype (n=4) and TRPA1 KO mice (n=4) was recorded for 5 hours post injection. ****p<0.0001. B) IL-1β induces a dose-dependent hypothermic response in mice. After recording the baseline temperature for 1 hr, rmIL-1β (0 [n=4], 0.5 [n=4], 50.0 [n=3] μg/kg) was administered by i.p injection. Body temperature was recorded for 5 hours post injection.
# Mice were anesthetized with 2.5% isoflurane with an oxygen flow of 1 L/min. Once anesthetized, the mouse was moved to a supine position with the isoflurane maintained at 2.0% during surgery. A midline incision was made above the peritoneal cavity, with a ETA-F10 temperature implant (DSI New Brighton, Minn.) placed in the peritoneal cavity and tacked to the peritoneal wall. The cavity was then closed, and the mouse monitored every day for 3 days. The mouse was allowed to recover for a minimum of five days prior to any manipulation. The mice were placed on the DIS with baseline ip body temperature recorded for 1 hour prior to IL-1β or saline injection. The ip body temperature recording then continued for 5 hours post injection.
# Thermoregulation, specifically in cold sensing, is another major function of the TRPA1 ion channel. When housed at approximately 23° C., WT mice injected with murine IL-1β (5 μg/kg) have significant decrease in body temperature (t-test, p<0.0001) peaking at a temperature change of −2.3±0.15° C., while TRPA1 KO mice have no significant change in body temperature after IL-1β (5 μg/kg) peaking at 0.18±0.40° C. (FIG. 5A). […] However, there was no significant change in ip body temperature after saline ([…]) (t-test, p>0.05) (FIG. 5B). This indicates a previously unknown mechanism of IL-1β fever singling through TRPA1+ fibers of the vagus nerve, linking TRPA1's role in both thermoregulation as well as afferent inflammatory signaling through the vague nerve.
substance,measurement,setting,value
"IL-1β: interleukin 1β; recombinant human IL-1β for nerve recordings, murine (rmIL-1β) for thermoregulation","IL-6, IL-1β and KC/GRO (CXCL1) in serum and spleen",[1],further increases
same,Peak body temperature change,"[2]; TRPA1 KO mice, IL-1β 5 μg/kg ip",0.18±0.40 °C
same,Peak body temperature change,"[2]; WT mice housed at approximately 23° C., murine IL-1β 5 μg/kg ip",−2.3±0.15 °C
same,Change in ip body temperature,[2]; IL-1β 0.5 μg/kg,significant decreases
same,Change in ip body temperature,[2]; IL-1β 50 μg/kg,significant decreases

# Reference: patent US20190255175A1, “ACTIVATION OF TRPA1+ NOCICEPTORS IN THE VAGUS NERVE ATTENUATES SYSTEMIC INFLAMMATION” (THE FEINSTEIN INSTITUTE FOR MEDICAL RESEARCH, priority 2018, published 2019)
